Experimental data as given in patent US10111437B2, “Substituted guanidines as fungicides” (Nippon Soda Co., Ltd., priority 2015, dated 2018).

What was measured:
[1] = test system: cucumber gray mold fungus (Botrytis cinerea); experiment: Cucumber gray mold control test (foliar spray on cucumber seedlings); conditions: in Cucumis sativus, 96 h, read-out: control value
[2] = test system: Tomato late blight fungus (Phytophthora infestans); experiment: whole plant or invertebrate; assay type: in vivo; conditions: foliar, 96 h, read-out: control value
[3] = test system: Apple scab fungus (Venturia inaequalis); experiment: Apple scab control test (foliar spray on apple seedlings); assay type: in vivo; conditions: 125 ppm active ingredient, sprayed on apple seedlings (variety Orin) before inoculation, vs untreated
Experimental: The dilution was sprayed to apple seedlings (variety “Orin”, 3 to 4 leaf stage) grown in clay pots. […] The control value was calculated by the following equation. [formula]

## N=C(N)c1ccc(OCCCn2cc(-c3ccccc3)n(CCCOc3ccc(C(=N)N)cc3)c2=N)cc1 [compound 149]
[1]
  pest or weed control at 125 ppm: ≥ 75%
[2]
  pest or weed control at 125 ppm: ≥ 75%
[3]
  pest or weed control at 125 ppm: ≥ 75%

## N=C(N)c1ccc(OCCCn2ccn(CCCOc3ccc(C(=N)N)cc3Br)c2=N)c(Br)c1 [compound 54, 3-bromo-4-[3-[3-[3-(2-bromo-4-carbamimidoyl-phenoxy)propyl]-2-imino-imidazol-1-yl]propoxy]benzamidine]
[1]
  pest or weed control at 125 ppm: ≥ 75%
[2]
  pest or weed control at 125 ppm: ≥ 75%

## N=C(NCCCCCc1nc(C(=N)N)cs1)NCCCOc1ccc(C(=N)N)cc1 [compound 91]
[1]
  pest or weed control at 125 ppm: ≥ 75%
[2]
  pest or weed control at 125 ppm: ≥ 75%
[3]
  pest or weed control at 125 ppm: ≥ 75%

## N=C(N)c1ccc(OCCCCCn2ccn(CCOc3ccc(C(=N)N)cc3)c2=N)cc1 [compound 93]
[1]
  pest or weed control at 125 ppm: ≥ 75%
[2]
  pest or weed control at 125 ppm: ≥ 75%
[3]
  pest or weed control at 125 ppm: ≥ 75%

## CC(C)(C)OC(=O)NC(=N)c1ccc(OCCn2ccn(CCOc3ccc(C(=N)NC(=O)OC(C)(C)C)cc3)c2=NC(=O)C(F)(F)F)cc1 [compound 73]
[3]
  pest or weed control at 125 ppm: ≥ 75%

## N=C(N)c1ccc(OCCCCN2CCN(CCCCOc3ccc(C(=N)N)cc3)C2=N[N+](=O)[O-])cc1 [compound 38, 4-[4-[3-[4-(4-carbamimidoylphenoxy)butyl]-2-nitroimino-imidazolidin-1-yl]butoxy]benzamidine]
[1]
  pest or weed control at 125 ppm: ≥ 75%
[3]
  pest or weed control at 125 ppm: ≥ 75%

## N=C(NCC#Cc1ccc(C(=N)N)cc1)NCC#Cc1ccc(C(=N)N)cc1 [compound 155]
[1]
  pest or weed control at 125 ppm: ≥ 75%
[2]
  pest or weed control at 125 ppm: ≥ 75%
[3]
  pest or weed control at 125 ppm: ≥ 75%

## N=C(N)c1ccc(OCCCCn2c(=N)n(CCCCOc3ccc(C(=N)N)cc3)c3ccccc32)cc1 [compound 27, 4-[4-[3-[4-(4-carbamimidoylphenoxy)butyl]-2-imino-benzimidazol-1-yl]butoxy]benzamidine]
[1]
  pest or weed control at 125 ppm: ≥ 75%
[2]
  pest or weed control at 125 ppm: ≥ 75%
[3]
  pest or weed control at 125 ppm: ≥ 75%

## N=C(NCCCOc1ccc(C2=NCCN2)cc1)NCCCOc1ccc(C2=NCCN2)cc1 [compound 78]
[1]
  pest or weed control at 125 ppm: ≥ 75%
[3]
  pest or weed control at 125 ppm: ≥ 75%

## C/N=C(/NCCCOc1ccc(C(=N)N)cc1)N(C)CCCOc1ccc(C(=N)N)cc1 [compound 138]
[1]
  pest or weed control at 125 ppm: ≥ 75%
[2]
  pest or weed control at 125 ppm: ≥ 75%
[3]
  pest or weed control at 125 ppm: ≥ 75%

## Cc1cc(C(=N)N)ccc1OCCCCNC(=N)NCCCCOc1ccc(C(=N)N)cc1C [compound 84]
[1]
  pest or weed control at 125 ppm: ≥ 75%
[2]
  pest or weed control at 125 ppm: ≥ 75%
[3]
  pest or weed control at 125 ppm: ≥ 75%

## N=C(N)NCCCCCCNC(=N)NCCCOc1ccc(C(=N)N)cc1 [compound 134]
[1]
  pest or weed control at 125 ppm: ≥ 75%
[2]
  pest or weed control at 125 ppm: ≥ 75%
[3]
  pest or weed control at 125 ppm: ≥ 75%

## N=C(N)NCCCCCCCNC(=N)NCCCCCCCNC(=N)N [compound 12, 1,3-bis(7-guanidinoheptyl)guanidine]
[1]
  pest or weed control at 125 ppm: ≥ 75%
[3]
  pest or weed control at 125 ppm: ≥ 75%

## N=C(N)c1ccc(SCCCn2ccn(CCCSc3ccc(C(=N)N)cc3)c2=N)cc1 [compound 181]
[1]
  pest or weed control at 125 ppm: ≥ 75%
[2]
  pest or weed control at 125 ppm: ≥ 75%
[3]
  pest or weed control at 125 ppm: ≥ 75%

## N=C(N)NCCCCCCCNC(=N)NCCCCOc1ccc(C2=NCCCN2)cc1 [compound 202]
[1]
  pest or weed control at 125 ppm: ≥ 75%
[2]
  pest or weed control at 125 ppm: ≥ 75%
[3]
  pest or weed control at 125 ppm: ≥ 75%

## N=C(NCCCCCCCCNC1=NCCN1)NCCOc1ccc(C2=NCCCN2)cc1 [compound 294]
[3]
  pest or weed control at 125 ppm: ≥ 75%

## N=C(NCCCCCCCOc1ccc(C(=N)N)cc1)NCCCCCCCOc1ccc(C(=N)N)cc1 [compound 14, 4-[7-[[N-[7-(4-carbamimidoylphenoxy)heptyl]carbamimidoyl]amino]heptoxy]benzamidine]
[1]
  pest or weed control at 125 ppm: ≥ 75%

## N=C(NCCCCOc1ccc(C(=N)N)cc1Cl)NCCCCOc1ccc(C(=N)N)cc1Cl [compound 86]
[1]
  pest or weed control at 125 ppm: ≥ 75%
[2]
  pest or weed control at 125 ppm: ≥ 75%
[3]
  pest or weed control at 125 ppm: ≥ 75%

## Cc1c(C)n(CCCCOc2ccc(C(=N)N)cc2)c(=N)n1CCCCOc1ccc(C(=N)N)cc1 [compound 105]
[1]
  pest or weed control at 125 ppm: ≥ 75%
[2]
  pest or weed control at 125 ppm: ≥ 75%
[3]
  pest or weed control at 125 ppm: ≥ 75%

## N=C(N)c1ccc(COCCCn2ccn(CCCOCc3ccc(C(=N)N)cc3)c2=N)cc1 [compound 161]
[1]
  pest or weed control at 125 ppm: ≥ 75%
[3]
  pest or weed control at 125 ppm: ≥ 75%

## N=C(N)c1csc(CCCCCn2ccn(CCCCCc3nc(C(=N)N)cs3)c2=N)n1 [compound 95]
[1]
  pest or weed control at 125 ppm: ≥ 75%
[3]
  pest or weed control at 125 ppm: ≥ 75%

## N=C(N)c1ccc(OCCCn2ccn(CCCOc3ccc(C(=N)N)cc3)c2=N)cc1 [compound 20, 4-[3-[3-[3-(4-carbamimidoylphenoxy)propyl]-2-imino-imidazol-1-yl]propoxy]benzamidine]
[1]
  pest or weed control at 125 ppm: ≥ 75%

## CNC(=N)c1ccc(OCCCCn2ccn(CCCCOc3ccc(C(=N)NC)cc3)c2=N)cc1 [compound 118]
[1]
  pest or weed control at 125 ppm: ≥ 75%
[2]
  pest or weed control at 125 ppm: ≥ 75%
[3]
  pest or weed control at 125 ppm: ≥ 75%

## N=C(NCCCOc1ccc(C(=N)N)c(F)c1)NCCCOc1ccc(C(=N)N)c(F)c1 [compound 82]
[1]
  pest or weed control at 125 ppm: ≥ 75%
[2]
  pest or weed control at 125 ppm: ≥ 75%
[3]
  pest or weed control at 125 ppm: ≥ 75%

## N=C(N)NCCCCCCCNC(=N)NCCCOCc1ccc(C2=NCCCN2)cc1 [compound 224]
[1]
  pest or weed control at 125 ppm: ≥ 75%
[2]
  pest or weed control at 125 ppm: ≥ 75%
[3]
  pest or weed control at 125 ppm: ≥ 75%

## N=C(N)c1ccc(COCCCn2ccn(CCCOc3ccc(C(=N)N)cc3)c2=N)cc1 [compound 159]
[1]
  pest or weed control at 125 ppm: ≥ 75%
[2]
  pest or weed control at 125 ppm: ≥ 75%
[3]
  pest or weed control at 125 ppm: ≥ 75%

## N=C(NCCCc1cc2cc(C(=N)N)ccc2o1)NCCCc1cc2cc(C(=N)N)ccc2o1 [compound 80]
[1]
  pest or weed control at 125 ppm: ≥ 75%
[2]
  pest or weed control at 125 ppm: ≥ 75%
[3]
  pest or weed control at 125 ppm: ≥ 75%

## N=C(N)c1ccc(OCCCCn2ccn(CCCCOc3ccc(C(=N)N)cn3)c2=NC(=O)C(F)(F)F)nc1 [compound 46, N-(1,3-bis(4-((5-carbamimidoylpyridin-2-yl)oxy)butyl)-1,3-dihydro-2H-imidazol-2-ylidene)-2,2,2-trifluoroacetamide]
[1]
  pest or weed control at 125 ppm: ≥ 75%

## N=C(N)NCCCCCCCCNC(=N)NCCCOCc1ccc(C2=NCCCN2)cn1 [compound 250]
[1]
  pest or weed control at 125 ppm: ≥ 75%
[2]
  pest or weed control at 125 ppm: ≥ 75%
[3]
  pest or weed control at 125 ppm: ≥ 75%

## N=C(N)NCCCCCCCCNC(=N)NCCCSc1ccc(C(=N)N)cc1 [compound 198]
[1]
  pest or weed control at 125 ppm: ≥ 75%
[2]
  pest or weed control at 125 ppm: ≥ 75%
[3]
  pest or weed control at 125 ppm: ≥ 75%

## N=C(N)c1ccc(OCCCn2ccn(CCCOc3ccc(C(=N)N)cc3Cl)c2=N)c(Cl)c1 [compound 99]
[1]
  pest or weed control at 125 ppm: ≥ 75%
[2]
  pest or weed control at 125 ppm: ≥ 75%
[3]
  pest or weed control at 125 ppm: ≥ 75%

## CNCCNC(=N)NCCCCCCCCNC(=N)NCCCCOc1ccc(C(=N)N)cc1 [compound 147]
[1]
  pest or weed control at 125 ppm: ≥ 75%
[2]
  pest or weed control at 125 ppm: ≥ 75%
[3]
  pest or weed control at 125 ppm: ≥ 75%

## N=C(N)NCCCCCCCn1ccn(CCCCOc2ccc(C3=NCCCN3)cc2)c1=N [compound 208]
[1]
  pest or weed control at 125 ppm: ≥ 75%
[2]
  pest or weed control at 125 ppm: ≥ 75%
[3]
  pest or weed control at 125 ppm: ≥ 75%

## CNCCNC(=N)c1ccc(OCCCn2ccn(CCCOc3ccc(C(=N)N)cc3)c2=N)cc1 [compound 101]
[1]
  pest or weed control at 125 ppm: ≥ 75%
[2]
  pest or weed control at 125 ppm: ≥ 75%
[3]
  pest or weed control at 125 ppm: ≥ 75%

## N=C(NCCOCc1ccc(C(=N)N)cc1)NCCOCc1ccc(C(=N)N)cc1 [compound 226]
[1]
  pest or weed control at 125 ppm: ≥ 75%
[3]
  pest or weed control at 125 ppm: ≥ 75%

## N=C(N)NCCCCCCCCNC(=N)NCCOc1ccc(C(=N)N)cc1 [compound 232]
[2]
  pest or weed control at 125 ppm: ≥ 75%
[3]
  pest or weed control at 125 ppm: ≥ 75%

## N=C(NCCCOCc1ccc(C(=N)N)cc1)NCCCOCc1ccc(C(=N)N)cc1 [compound 175]
[1]
  pest or weed control at 125 ppm: ≥ 75%
[3]
  pest or weed control at 125 ppm: ≥ 75%

## N=C(N)NCCCCCCCCNC(=N)NCCCc1ccc(C2=NCCCN2)cc1 [compound 271]
[3]
  pest or weed control at 125 ppm: ≥ 75%

## N=C(N)NCCCCCCCNC(=N)NCCOc1ccc2cc(C3=NCCCN3)ccc2c1 [compound 290]
[2]
  pest or weed control at 125 ppm: ≥ 75%
[3]
  pest or weed control at 125 ppm: ≥ 75%

## N=C(NCCCc1ccc(C(=N)N)cc1)NCCCc1ccc(C(=N)N)cc1 [compound 65, 4-[3-[[N-[3-(4-carbamimidoylphenyl)propyl]carbamimidoyl]amino]propyl]benzamidine]
[1]
  pest or weed control at 125 ppm: ≥ 75%
[3]
  pest or weed control at 125 ppm: ≥ 75%

## N=C(N)c1ccc(OCCCNC(=Nc2ccccc2)NCCCOc2ccc(C(=N)N)cc2)cc1 [compound 63, 4-[3-[[N-[3-(4-carbamimidoylphenoxy)propyl]-N′-phenyl-carbamimidoyl]amino]propoxy]benzamidine]
[1]
  pest or weed control at 125 ppm: ≥ 75%
[3]
  pest or weed control at 125 ppm: ≥ 75%

## N=C(NCCCCCCCCNC1=NCCN1)NCCCOc1ccc(C2=NCCCN2)cc1 [compound 296]
[1]
  pest or weed control at 125 ppm: ≥ 75%
[3]
  pest or weed control at 125 ppm: ≥ 75%

## N=C(N)NCCCCCCN1CCN(CCCCCCNC(=N)N)C1=N [compound 4, 1-[6-[3-(6-guanidinohexyl)-2-imino-imidazolidin-1-yl]hexyl]guanidine]
[1]
  pest or weed control at 125 ppm: ≥ 75%
[3]
  pest or weed control at 125 ppm: ≥ 75%

## N=C(NCCCOc1ccc(C(=N)N)cn1)NCCCOc1ccc(C(=N)N)cn1 [compound 17, 6,6′-((((iminomethylene)bis(azanediyl))bis (propane-3,1-diyl))bis(oxy))dinicotinimidamide]
[1]
  pest or weed control at 125 ppm: ≥ 75%
[3]
  pest or weed control at 125 ppm: ≥ 75%

## CNCCNC(=N)c1ccc(OCCCn2ccn(CCCOc3ccc(C(=N)NCCNC)cc3)c2=N)cc1 [compound 97]
[3]
  pest or weed control at 125 ppm: ≥ 75%

## N=c1[nH]ccn1CCCCCCCCn1ccn(CCCOc2ccc(C3=NCCCN3)cc2)c1=N [compound 283]
[1]
  pest or weed control at 125 ppm: ≥ 75%
[3]
  pest or weed control at 125 ppm: ≥ 75%
